Assay results from patent US5391540A, “Substituted pyridine compounds” (Rohm and Haas Company, priority 1993, dated 1995).

Columns and labels:
Format in all cases: in vivo
[1] = test system: Cocklebur; assay: Pre-emergent herbicidal activity (Table A); conditions: Xanthium strumarium, pre-emergence, Cobu, 11.2 kg/ha, 10-14 days, read-out: herbicidal rating (% inhibition)
How it was run: (§1)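 Seeds or perennial propagules set on compacted topsoil, then covered with soil mixed with a known amount of test compound applied in acetone or water carrier. Ratings assigned on a scale based on percent inhibition of each species.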

[2] = test system: Downy Brome; assay: Pre-emergent herbicidal activity (Table A); conditions: Bromus tectorum, pre-emergence, Dobr, 11.2 kg/ha, 10-14 days, read-out: herbicidal rating (% inhibition)
How it was run: as §1

[3] = test system: Morningglory; assay: Pre-emergent herbicidal activity (Table A); conditions: Ipomoea, pre-emergence, Mogl, 11.2 kg/ha, 10-14 days, read-out: herbicidal rating (% inhibition)
How it was run: as §1

[4] = test system: Yellow Nutsedge; assay: Pre-emergent herbicidal activity (Table A); conditions: Cyperus, pre-emergence, Yens, 11.2 kg/ha, 10-14 days, read-out: herbicidal rating (% inhibition)
How it was run: as §1

[5] = test system: Bygr; assay: plant injury after spraying emerged plants (Table D); set-up: scale not given here
From the text: (§2) Topsoil (silt loam) is sieved through a screen having 1.27 cm openings. […] This mixture is steam sterilized and then placed in aluminum pans 6.985 cm deep having ten holes in the bottom each 0.635 cm in diameter. The soil mixture is compacted to a depth of 1.27 cm. from the top of the pan. A predetermined number of seeds of each of several dicotyledonous and monocotyledonous annual plant species and/or vegetative propagules for the perennial plant species are placed on the soil and pressed into the soil surface. The seeds and/or vegetative propagules are covered with 1.27 cm of a mixture of 50% topsoil and 50% of a mixture of Canadian sphagnum peat moss, vermiculite and a wetting agent. The pans are then placed on a capillary mat on a greenhouse bench and subirrigated as needed.
(§3) In the following Table D the legends used to identify the plant species are the same as those used in the preceding Table B.

[6] = test system: Cobu; assay: as above; set-up: scale not given here
From the text: as §2, §3

[7] = test system: Corn; assay: as above; set-up: scale not given here
From the text: as §2, §3

[8] = test system: Grft; assay: as above; set-up: scale not given here
From the text: as §2, §3

[9] = test system: Grso; assay: as above; set-up: scale not given here
From the text: as §2, §3

[10] = test system: Lacg; assay: as above; set-up: scale not given here
From the text: as §2, §3

[11] = test system: Mogl; assay: as above; set-up: scale not given here
From the text: as §2, §3

[12] = test system: Prmi; assay: as above; set-up: scale not given here
From the text: as §2, §3

[13] = test system: Rice; assay: as above; set-up: scale not given here
From the text: as §2, §3

[14] = test system: Sobe; assay: as above; set-up: scale not given here
From the text: as §2, §3

[15] = test system: Whez; assay: as above; set-up: scale not given here
From the text: as §2, §3

[16] = test system: Dobr; assay: as above
From the text: Topsoil (silt loam) is sieved through a screen having 1.27 cm openings. In some of the tests the soil was mixed with fertilizer (1225 g/cu. m of 12/5/9 containing isobutylidene diurea), while in other tests the fertilizer was omitted. This mixture is steam sterilized and then placed in aluminum pans 6.985 cm deep having ten holes in the bottom each 0.635 cm in diameter. The soil mixture is compacted to a depth of 1.27 cm. from the top of the pan. A predetermined number of seeds of each of several dicotyledonous and monocotyledonous annual plant species and/or vegetative propagules for the perennial plant species are placed on the soil and pressed into the soil surface. The seeds and/or vegetative propagules are covered with 1.27 cm of a mixture of 50% topsoil and 50% of a mixture of Canadian sphagnum peat moss, vermiculite and a wetting agent. The pans are then placed on a capillary mat on a greenhouse bench and subirrigated as needed. After the plants reach the desired stage (9 to 14 days, 1 to 3 true leaf stage), each pan (except the control pans) is removed to a spraying chamber and sprayed by means of an atomizer, operating at a spray pressure of 170.3 kPa ([…]) at the application rates noted in Table D. In the spray solution is an amount of an emulsifying agent mixture (35% butylamine salt of dodecylbenzenesulfonic acid and 65% tall oil condensed with ethylene oxide in the ratio of 11 mols of ethylene oxide/mol of tall oil) to give a spray solution or suspension. The spray solution or suspension contains a sufficient amount of the candidate chemical in order to give application rates of the active ingredient corresponding to those shown in Table D below while applying a total amount of solution or suspension equivalent to 1870 L/Ha (200 gallons/acre). The pans are returned to the greenhouse and watered as before and the injury to the plants as compared to the control pans is observed at approximately 10-14 days (usually 11 days).
as §3

COC(=O)c1c(OC)nc(C(F)(F)F)c(-c2nnc(C)o2)c1CC(C)C [Compound 103, 3-pyridinecarboxylic acid, 2-methoxy-5-(5-methy1-1,3,4-oxadiazo1-2-yl)-4-(2-methylpropyl)-6-(trifluoromethyl)-, methyl ester]
0: plant injury rating, Bygr ([5]; 0.0701 kg/ha) | plant injury rating, Bygr ([5]; 0.2803 kg/ha) | plant injury rating, Bygr ([5]; 1.1219 kg/ha) | plant injury rating, Bygr ([5]; 5.6050 kg/ha) | plant injury rating, Cobu ([6]; 0.0701 kg/ha) | plant injury rating, Cobu ([6]; 0.2803 kg/ha) | plant injury rating, Cobu ([6]; 1.1219 kg/ha) | plant injury rating, Cobu ([6]; 5.6050 kg/ha) | plant injury rating, Corn ([7]; 0.0701 kg/ha) | plant injury rating, Corn ([7]; 0.2803 kg/ha) | plant injury rating, Grft ([8]; 0.0701 kg/ha) | plant injury rating, Grft ([8]; 0.2803 kg/ha) | plant injury rating, Grft ([8]; 1.1219 kg/ha) | plant injury rating, Grft ([8]; 5.6050 kg/ha) | plant injury rating, Grso ([9]; 0.0701 kg/ha) | plant injury rating, Grso ([9]; 0.2803 kg/ha) | plant injury rating, Grso ([9]; 1.1219 kg/ha) | plant injury rating, Lacg ([10]; 0.0701 kg/ha) | plant injury rating, Lacg ([10]; 0.2803 kg/ha) | plant injury rating, Lacg ([10]; 1.1219 kg/ha) | plant injury rating, Mogl ([11]; 0.0701 kg/ha) | plant injury rating, Prmi ([12]; 0.0701 kg/ha) | plant injury rating, Prmi ([12]; 0.2803 kg/ha) | plant injury rating, Prmi ([12]; 1.1219 kg/ha) | plant injury rating, Prmi ([12]; 5.6050 kg/ha) | plant injury rating, Rice ([13]; 0.0701 kg/ha) | plant injury rating, Rice ([13]; 0.2803 kg/ha) | plant injury rating, Rice ([13]; 1.1219 kg/ha) | plant injury rating, Rice ([13]; 5.6050 kg/ha) | plant injury rating, Sobe ([14]; 0.0701 kg/ha) | plant injury rating, Sobe ([14]; 0.2803 kg/ha) | plant injury rating, Sobe ([14]; 1.1219 kg/ha) | plant injury rating, Whez ([15]; 0.0701 kg/ha) | plant injury rating, Whez ([15]; 0.2803 kg/ha) | plant injury rating, Whez ([15]; 1.1219 kg/ha) | plant injury rating, Whez ([15]; 5.6050 kg/ha) | plant injury rating, Dobr ([16]; 0.0701 kg/ha) | plant injury rating, Dobr ([16]; 0.2803 kg/ha) | plant injury rating, Dobr ([16]; 1.1219 kg/ha) | plant injury rating, Dobr ([16]; 5.6050 kg/ha)
50 to 74%: inhibition at 11200 g/ha [2]
2: plant injury rating, Grso ([9]; 5.6050 kg/ha) | plant injury rating, Lacg ([10]; 5.6050 kg/ha) | plant injury rating, Mogl ([11]; 5.6050 kg/ha) | plant injury rating, Sobe ([14]; 5.6050 kg/ha)
75 to 100%: inhibition at 11200 g/ha [3]
1: plant injury rating, Mogl ([11]; 0.2803 kg/ha) | plant injury rating, Mogl ([11]; 1.1219 kg/ha)
3: plant injury rating, Corn ([7]; 1.1219 kg/ha) | plant injury rating, Corn ([7]; 5.6050 kg/ha)
0 to 24%: inhibition at 11200 g/ha [1] | inhibition at 11200 g/ha [4]

COC(=O)c1c(OC)nc(C(F)(F)F)c(C2SCCS2)c1CC(C)C [Compound 93, 3-pyridinecarboxylic acid, 5-(1,3-dithiolan-2-yl)-2-methoxy-4-(2-methylpropyl)-6-(trifluoromethyl)-, methyl ester]
0 to 24%: inhibition at 11200 g/ha [1] | inhibition at 11200 g/ha [4]
2: plant injury rating, Bygr ([5]; 5.6050 kg/ha) | plant injury rating, Cobu ([6]; 1.1210 kg/ha) | plant injury rating, Grso ([9]; 5.6050 kg/ha) | plant injury rating, Lacg ([10]; 0.2803 kg/ha) | plant injury rating, Mogl ([11]; 0.2803 kg/ha) | plant injury rating, Mogl ([11]; 1.1210 kg/ha) | plant injury rating, Sobe ([14]; 1.1210 kg/ha)
1: plant injury rating, Grft ([8]; 5.6050 kg/ha) | plant injury rating, Sobe ([14]; 0.2803 kg/ha)
3: plant injury rating, Cobu ([6]; 5.6050 kg/ha) | plant injury rating, Corn ([7]; 0.2803 kg/ha) | plant injury rating, Corn ([7]; 1.1210 kg/ha) | plant injury rating, Corn ([7]; 5.6050 kg/ha) | plant injury rating, Lacg ([10]; 1.1210 kg/ha) | plant injury rating, Lacg ([10]; 5.6050 kg/ha) | plant injury rating, Mogl ([11]; 5.6050 kg/ha) | plant injury rating, Sobe ([14]; 5.6050 kg/ha)
75 to 100%: inhibition at 11200 g/ha [2] | inhibition at 11200 g/ha [3]
0: plant injury rating, Bygr ([5]; 0.0701 kg/ha) | plant injury rating, Bygr ([5]; 0.2803 kg/ha) | plant injury rating, Bygr ([5]; 1.1210 kg/ha) | plant injury rating, Cobu ([6]; 0.0701 kg/ha) | plant injury rating, Cobu ([6]; 0.2803 kg/ha) | plant injury rating, Corn ([7]; 0.0701 kg/ha) | plant injury rating, Grft ([8]; 0.0701 kg/ha) | plant injury rating, Grft ([8]; 0.2803 kg/ha) | plant injury rating, Grft ([8]; 1.1210 kg/ha) | plant injury rating, Grso ([9]; 0.0701 kg/ha) | plant injury rating, Grso ([9]; 0.2803 kg/ha) | plant injury rating, Grso ([9]; 1.1210 kg/ha) | plant injury rating, Mogl ([11]; 0.0701 kg/ha) | plant injury rating, Prmi ([12]; 0.0701 kg/ha) | plant injury rating, Prmi ([12]; 0.2803 kg/ha) | plant injury rating, Prmi ([12]; 1.1210 kg/ha) | plant injury rating, Prmi ([12]; 5.6050 kg/ha) | plant injury rating, Rice ([13]; 0.0701 kg/ha) | plant injury rating, Rice ([13]; 0.2803 kg/ha) | plant injury rating, Rice ([13]; 1.1210 kg/ha) | plant injury rating, Rice ([13]; 5.6050 kg/ha) | plant injury rating, Sobe ([14]; 0.0701 kg/ha) | plant injury rating, Whez ([15]; 0.0701 kg/ha) | plant injury rating, Whez ([15]; 0.2803 kg/ha) | plant injury rating, Whez ([15]; 1.1210 kg/ha) | plant injury rating, Whez ([15]; 5.6050 kg/ha) | plant injury rating, Dobr ([16]; 0.0701 kg/ha) | plant injury rating, Dobr ([16]; 0.2803 kg/ha) | plant injury rating, Dobr ([16]; 1.1210 kg/ha) | plant injury rating, Dobr ([16]; 5.6050 kg/ha)

COC(=O)c1c(OC)nc(C(F)(F)F)c(C(=O)n2ccc(F)n2)c1C1CCC1 [Compound 140, 3-pyridinecarboxylic acid, 4-cyclobuty1-5-[(3-fluoro-1H-pyrazo1-1-yl)carbonyl]-2-methoxy-6-(trifluoromethyl)-, methyl ester]
0: plant injury rating, Bygr ([5]; 0.2803 kg/ha) | plant injury rating, Bygr ([5]; 1.1210 kg/ha) | plant injury rating, Bygr ([5]; 5.6050 kg/ha) | plant injury rating, Grft ([8]; 0.2803 kg/ha) | plant injury rating, Grft ([8]; 1.1210 kg/ha) | plant injury rating, Grft ([8]; 5.6050 kg/ha) | plant injury rating, Grso ([9]; 0.2803 kg/ha) | plant injury rating, Grso ([9]; 1.1210 kg/ha) | plant injury rating, Grso ([9]; 5.6050 kg/ha) | plant injury rating, Prmi ([12]; 0.2803 kg/ha) | plant injury rating, Prmi ([12]; 1.1210 kg/ha) | plant injury rating, Prmi ([12]; 5.6050 kg/ha) | plant injury rating, Rice ([13]; 0.2803 kg/ha) | plant injury rating, Rice ([13]; 1.1210 kg/ha) | plant injury rating, Rice ([13]; 5.6050 kg/ha) | plant injury rating, Whez ([15]; 0.2803 kg/ha) | plant injury rating, Whez ([15]; 1.1210 kg/ha) | plant injury rating, Whez ([15]; 5.6050 kg/ha) | plant injury rating, Dobr ([16]; 0.2803 kg/ha) | plant injury rating, Dobr ([16]; 1.1210 kg/ha) | plant injury rating, Dobr ([16]; 5.6050 kg/ha)
2: plant injury rating, Corn ([7]; 0.2803 kg/ha) | plant injury rating, Corn ([7]; 5.6050 kg/ha) | plant injury rating, Lacg ([10]; 0.2803 kg/ha) | plant injury rating, Lacg ([10]; 1.1210 kg/ha) | plant injury rating, Mogl ([11]; 0.2803 kg/ha) | plant injury rating, Mogl ([11]; 1.1210 kg/ha) | plant injury rating, Mogl ([11]; 5.6050 kg/ha) | plant injury rating, Sobe ([14]; 1.1210 kg/ha) | plant injury rating, Sobe ([14]; 5.6050 kg/ha)
0 to 24%: inhibition at 11200 g/ha [1] | inhibition at 11200 g/ha [4]
75 to 100%: inhibition at 11200 g/ha [2] | inhibition at 11200 g/ha [3]
3: plant injury rating, Cobu ([6]; 1.1210 kg/ha) | plant injury rating, Cobu ([6]; 5.6050 kg/ha) | plant injury rating, Lacg ([10]; 5.6050 kg/ha)
1: plant injury rating, Cobu ([6]; 0.2803 kg/ha) | plant injury rating, Corn ([7]; 1.1210 kg/ha)
